# Like-named read-outs stand apart in the source and are kept apart here.
# Legend:
# [1] = system: NCI/ADR-RES (Breast Cancer)
# Protocol: (§1) For a typical screening experiment, cells are inoculated into 96 well microtiter plates in 100 μL at plating densities ranging from 5,000 to 40,000 cells/well depending on the doubling time of individual cell lines. After cell inoculation, the microtiter plates are incubated at 37° C., 5% CO2, 95% air and 100% relative humidity for 24 h prior to addition of experimental drugs.
# (§2) After 24 h, two plates of each cell line are fixed in situ with TCA, to represent a measurement of the cell population for each cell line at the time of drug addition (Tz). Experimental drugs are solubilized in dimethyl sulfoxide at 400-fold the desired final maximum test concentration and stored frozen prior to use. At the time of drug addition, an aliquot of frozen concentrate is thawed and diluted to twice the desired final maximum test concentration with complete medium containing 50 μg/ml gentamicin. Additional four, 10-fold or ½ log serial dilutions are made to provide a total of five drug concentrations plus control. Aliquots of 100 μl of these different drug dilutions are added to the appropriate microtiter wells already containing 100 μl of medium, resulting in the required final drug concentrations.
# (§3) Following drug addition, the plates are incubated for an additional 48 h at 37° C., 5% CO2, 95% air, and 100% relative humidity. For adherent cells, the assay is terminated by the addition of cold TCA. Cells are fixed in situ by the gentle addition of 50 μl of cold 50% (w/v) TCA (final concentration, 10% TCA) and incubated for 60 minutes at 4° C. The supernatant is discarded, and the plates are washed five times with tap water and air dried. Sulforhodamine B (SRB) solution (1001) at 0.4% (w/v) in 1% acetic acid is added to each well, and plates are incubated for 10 minutes at room temperature. After staining, unbound dye is removed by washing five times with 1% acetic acid and the plates are air dried. Bound stain is subsequently solubilized with 10 mM trizma base, and the absorbance is read on an automated plate reader at a wavelength of 515 nm. For suspension cells, the methodology is the same except that the assay is terminated by fixing settled cells at the bottom of the wells by gently adding 50 μl of 80% TCA (final concentration, 16% TCA). Using the seven absorbance measurements [time zero, (Tz), control growth, (C), and test growth in the presence of drug at the five concentration levels (Ti)], the percentage growth is calculated at each of the drug concentrations levels. Percentage growth inhibition is calculated as: [(Ti−Tz)/(C−Tz)]×100 for concentrations for which Ti>/=Tz [(Ti−Tz)/Tz]×100 for concentrations for which Ti<Tz
# (§4) Three dose response parameters are calculated for each experimental agent. […] The drug concentration resulting in total growth inhibition (TGI) is calculated from Ti=Tz. […] Values are calculated for each of these three parameters if the level of activity is reached; however, if the effect is not reached or is exceeded, the value for that parameter is expressed as greater or less than the maximum or minimum concentration tested.
# SF-268 (CNS Cancer) = assay: NCI DTP tumor cell line screen (SRB), SF-268
# Protocol: as §1, §2, §3, §4
# BT-549 (Breast Cancer) = assay: NCI DTP tumor cell line screen (SRB), BT-549
# Protocol: as §1, §2, §3, §4
# SF-295 (CNS Cancer) = assay: NCI DTP tumor cell line screen (SRB), SF-295
# Protocol: as §1, §2, §3, §4
# SNB-19 (CNS Cancer) = assay: NCI DTP tumor cell line screen (SRB), SNB-19
# Protocol: as §1, §2, §3, §4
# U251 (CNS Cancer) = assay: NCI DTP tumor cell line screen (SRB), U251
# Protocol: as §1, §2, §3, §4
# [2] = system: NCI-H226 (Non-Small Cell Lung Cancer)
# Protocol: as §1, §2, §3, §4
# recombinant PDK-1 = recombinant PDK-1 (Homo sapiens (Human), UniProt O15530); assay: PDK-1 kinase activity (PDK-1 kinase assay kit, cell-free); type: biochemical
# Chain of recombinant PDK-1 (O15530 whole entry, looked up): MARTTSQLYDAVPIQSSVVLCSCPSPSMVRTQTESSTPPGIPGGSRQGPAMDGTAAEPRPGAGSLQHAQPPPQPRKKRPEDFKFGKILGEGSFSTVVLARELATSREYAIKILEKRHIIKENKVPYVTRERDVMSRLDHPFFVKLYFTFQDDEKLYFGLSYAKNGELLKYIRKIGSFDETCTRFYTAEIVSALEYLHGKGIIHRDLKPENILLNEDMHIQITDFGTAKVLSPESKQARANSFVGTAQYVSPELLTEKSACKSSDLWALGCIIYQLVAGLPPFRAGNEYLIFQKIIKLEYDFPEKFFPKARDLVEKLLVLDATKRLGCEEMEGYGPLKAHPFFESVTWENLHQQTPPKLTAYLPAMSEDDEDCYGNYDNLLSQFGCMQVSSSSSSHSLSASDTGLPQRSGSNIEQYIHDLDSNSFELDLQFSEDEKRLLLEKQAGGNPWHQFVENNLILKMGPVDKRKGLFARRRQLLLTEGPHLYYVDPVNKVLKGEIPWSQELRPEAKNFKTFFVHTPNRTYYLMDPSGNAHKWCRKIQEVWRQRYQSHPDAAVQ
# Protocol: PDK-1 kinase activity This in vitro assay was performed using a PDK-1 kinase assay kit (Upstate, Lake Placid, N.Y.) according to the vendor's instructions. This cell-free assay is based on the ability of recombinant PDK-1, in the presence of DMSO vehicle or the test agent, to activate its downstream kinase serum- and glucocorticoid-regulated kinase (SGK.) which, in turn, phosphorylates the Akt/SGK-specific peptide substrate RPRAATF with [γ-^32]-ATP. […] The reported values represent the means of two independent determinations.
# COX-2 = COX-2 (Homo sapiens (Human), UniProt P35354); assay: COX-2 inhibitory activity; type: biochemical; settings: concentrations up to 50 μM
# Chain of COX-2 (P35354 whole entry, looked up): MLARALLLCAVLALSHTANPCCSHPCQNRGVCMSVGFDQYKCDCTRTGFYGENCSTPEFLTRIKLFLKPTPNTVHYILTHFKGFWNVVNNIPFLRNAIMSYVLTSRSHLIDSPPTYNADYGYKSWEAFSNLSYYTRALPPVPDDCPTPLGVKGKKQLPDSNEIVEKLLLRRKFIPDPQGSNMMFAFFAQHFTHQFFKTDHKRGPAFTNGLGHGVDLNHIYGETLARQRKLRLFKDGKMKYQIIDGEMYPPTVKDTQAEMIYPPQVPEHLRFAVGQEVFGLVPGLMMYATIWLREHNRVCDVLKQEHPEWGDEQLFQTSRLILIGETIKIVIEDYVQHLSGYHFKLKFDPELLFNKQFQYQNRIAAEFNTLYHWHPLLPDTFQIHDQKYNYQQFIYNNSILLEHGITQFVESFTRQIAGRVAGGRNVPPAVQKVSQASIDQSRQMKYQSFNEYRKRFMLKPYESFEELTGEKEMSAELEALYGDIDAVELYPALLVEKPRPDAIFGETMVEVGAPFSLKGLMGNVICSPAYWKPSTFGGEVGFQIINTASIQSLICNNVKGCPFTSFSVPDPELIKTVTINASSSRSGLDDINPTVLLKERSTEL
# Akt = assay: Direct inhibition of immunoprecipitated Akt kinase activity; type: biochemical, human
# PC-3 cells = assay: Cell viability analysis, MTT assay in PC-3 cells; type: cell-based, human; settings: inducing apoptotic death in PC-3 cells / PC-3 cell viability; read-out: IC50 PC-3
# Protocol: Cell Culture PC-3 (p53−/−) human androgen-non-responsive prostate cancer cells were purchased from the American […] (Manassas, Va.). Cells were cultured in RPMI 1640 medium (Gibco, Grand Island, N.Y.) supplemented with 10% fetal bovine serum (FBS; Gibco) at 37° C. in a humidified incubator containing 5% CO2.
# Controls received DMSO vehicle at a concentration equal to that in drug-treated cells. The medium was removed, replaced by 200 μl of 0.5 mg/ml of MTT in 10% FBS-containing RPMI-1640 medium, and cells were incubated in the CO2 incubator at 37° C. for 2 h. Supernatants were removed from the wells, and the reduced MTT dye was solubilized in 200 μL/well DMSO. Absorbance at 570 nm was determined on a plate reader.
# phospho-Akt = assay: Western blot analysis of Akt and phospho-Akt in PC-3 cells; type: cell-based, human; settings: even at 1 μM
# Protocol: Immunoblotting. The general procedure for the Western blot analysis of Akt and phospho-Akt is described as follows. Cells were washed in PBS, resuspended in SDS sample buffer sonicated by an ultrasonic sonicator for 5 see, and boiled for 5 min. After brief centrifugation, equivalent protein concentrations from the soluble fractions were resolved in 10% SDS-polyacrylamide gels on a Minigel apparatus, and transferred to a nitrocellulose membrane using a semi-dry transfer cell. The transblotted membrane was washed three times with TBS containing 0.05% Tween 20 (TBST). After blocking with TBST containing 5% nonfat milk for 60 min., the membrane was incubated with the primary antibody at 1:1,000 dilution in TBST-5% low fat milk at 4° C. for 12 h, and was then washed three times with TBST. The membrane was probed with goat anti-rabbit IgG-HRP conjugates (1:1,000) for 1 h at room temperature, and was washed with TBST three times. The immunoblots were visualized by enhanced chemiluminescence.
compound,measurement,setting,value
"NCC(=O)Nc1ccc(-n2nc(C(F)(F)F)cc2-c2ccc3c(ccc4ccccc43)c2)cc1 [Compound 70, 2-Amino-N-{4-[5-(2-phenanthrenyl)-3-(trifluoromethyl)-1H-pyrazol-1-yl]-phenyl}-acetamide]",TGI,[1],2.85E−06
same,Mean Optical Densities,[1]; Log10 Concentration −4.0,0.212
same,Mean Optical Densities,[1]; Log10 Concentration −5.0,0.229
same,Percent Growth,[1]; Log10 Concentration −5.0,−59%
same,Mean Optical Densities,[1]; Log10 Concentration −6.0,1.217
same,Percent Growth,[1]; Log10 Concentration −6.0,49%
same,Mean Optical Densities,[1]; Log10 Concentration −7.0,1.878
same,Percent Growth,[1]; Log10 Concentration −7.0,98%
same,Mean Optical Densities,[1]; Log10 Concentration −8.0,1.883
same,Percent Growth,[1]; Log10 Concentration −8.0,98%
same,TGI,SF-268 (CNS Cancer),4.16E−06
same,Mean Optical Densities,SF-268 (CNS Cancer); Log10 Concentration −4.0,0.280
same,Mean Optical Densities,SF-268 (CNS Cancer); Log10 Concentration −5.0,0.252
same,Percent Growth,SF-268 (CNS Cancer); Log10 Concentration −5.0,−33%
same,Mean Optical Densities,SF-268 (CNS Cancer); Log10 Concentration −6.0,0.789
same,Percent Growth,SF-268 (CNS Cancer); Log10 Concentration −6.0,54%
same,Mean Optical Densities,SF-268 (CNS Cancer); Log10 Concentration −7.0,0.930
same,Percent Growth,SF-268 (CNS Cancer); Log10 Concentration −7.0,72%
same,Mean Optical Densities,SF-268 (CNS Cancer); Log10 Concentration −8.0,1.016
same,Percent Growth,SF-268 (CNS Cancer); Log10 Concentration −8.0,84%
same,TGI,BT-549 (Breast Cancer),2.95E−06
same,Mean Optical Densities,BT-549 (Breast Cancer); Log10 Concentration −5.0,0.143
same,Percent Growth,BT-549 (Breast Cancer); Log10 Concentration −5.0,−71%
same,Mean Optical Densities,BT-549 (Breast Cancer); Log10 Concentration −6.0,0.785
same,Percent Growth,BT-549 (Breast Cancer); Log10 Concentration −6.0,63%
same,Mean Optical Densities,BT-549 (Breast Cancer); Log10 Concentration −7.0,0.891
same,Percent Growth,BT-549 (Breast Cancer); Log10 Concentration −7.0,86%
same,Mean Optical Densities,BT-549 (Breast Cancer); Log10 Concentration −8.0,0.912
same,Percent Growth,BT-549 (Breast Cancer); Log10 Concentration −8.0,90%
same,TGI,SF-295 (CNS Cancer),3.71E−06
same,Mean Optical Densities,SF-295 (CNS Cancer); Log10 Concentration −4.0,0.287
same,Mean Optical Densities,SF-295 (CNS Cancer); Log10 Concentration −5.0,0.225
same,Percent Growth,SF-295 (CNS Cancer); Log10 Concentration −5.0,−47%
same,Mean Optical Densities,SF-295 (CNS Cancer); Log10 Concentration −6.0,0.915
same,Percent Growth,SF-295 (CNS Cancer); Log10 Concentration −6.0,62%
same,Mean Optical Densities,SF-295 (CNS Cancer); Log10 Concentration −7.0,1.190
same,Percent Growth,SF-295 (CNS Cancer); Log10 Concentration −7.0,96%
same,Mean Optical Densities,SF-295 (CNS Cancer); Log10 Concentration −8.0,1.173
same,Percent Growth,SF-295 (CNS Cancer); Log10 Concentration −8.0,94%
same,TGI,SNB-19 (CNS Cancer),3.15E−06
same,Mean Optical Densities,SNB-19 (CNS Cancer); Log10 Concentration −4.0,0.324
same,Mean Optical Densities,SNB-19 (CNS Cancer); Log10 Concentration −5.0,0.219
same,Percent Growth,SNB-19 (CNS Cancer); Log10 Concentration −5.0,−59%
same,Mean Optical Densities,SNB-19 (CNS Cancer); Log10 Concentration −6.0,1.230
same,Percent Growth,SNB-19 (CNS Cancer); Log10 Concentration −6.0,59%
same,Mean Optical Densities,SNB-19 (CNS Cancer); Log10 Concentration −7.0,1.655
same,Percent Growth,SNB-19 (CNS Cancer); Log10 Concentration −7.0,94%
same,Mean Optical Densities,SNB-19 (CNS Cancer); Log10 Concentration −8.0,1.562
same,Percent Growth,SNB-19 (CNS Cancer); Log10 Concentration −8.0,87%
same,TGI,U251 (CNS Cancer),2.64E−06
same,Mean Optical Densities,U251 (CNS Cancer); Log10 Concentration −4.0,0.320
same,Mean Optical Densities,U251 (CNS Cancer); Log10 Concentration −5.0,0.144
same,Percent Growth,U251 (CNS Cancer); Log10 Concentration −5.0,−63%
same,Mean Optical Densities,U251 (CNS Cancer); Log10 Concentration −6.0,0.810
same,Percent Growth,U251 (CNS Cancer); Log10 Concentration −6.0,46%
same,Mean Optical Densities,U251 (CNS Cancer); Log10 Concentration −7.0,1.139
same,Percent Growth,U251 (CNS Cancer); Log10 Concentration −7.0,82%
same,Mean Optical Densities,U251 (CNS Cancer); Log10 Concentration −8.0,1.298
same,Percent Growth,U251 (CNS Cancer); Log10 Concentration −8.0,100%
same,TGI,[2],3.21E−06
same,Mean Optical Densities,[2]; Log10 Concentration −4.0,0.614
same,Mean Optical Densities,[2]; Log10 Concentration −5.0,0.505
same,Percent Growth,[2]; Log10 Concentration −5.0,−58%
same,Mean Optical Densities,[2]; Log10 Concentration −6.0,1.429
same,Percent Growth,[2]; Log10 Concentration −6.0,59%
same,Mean Optical Densities,[2]; Log10 Concentration −7.0,1.586
same,Percent Growth,[2]; Log10 Concentration −7.0,98%
same,Mean Optical Densities,[2]; Log10 Concentration −8.0,1.593
same,Percent Growth,[2]; Log10 Concentration −8.0,100%
4-[5-(2-Phenanthrenyl)-3-(trifluoromethyl)-1H-pyrazol-1-yl]-phenyl -guanidine [Compound 71],increase in PDK-1 inhibition potency over compound 59,recombinant PDK-1,five-fold
same,COX-2 inhibitory activity,COX-2,nor was any measurable COX-2 inhibitory activity detected
same,GI50,[1],2640 nM
same,TGI,[1],7.73E−06
same,Percent Growth,[1]; Log10 Concentration −4.0,−47%
same,Percent Growth,[1]; Log10 Concentration −6.0,95%
same,Percent Growth,[1]; Log10 Concentration −8.0,98%
same,direct inhibitory effect on immunoprecipitated Akt kinase activity,Akt,no appreciable direct inhibition
same,IC50,PC-3 cells,3000 nM
same,phospho-Akt level,phospho-Akt,substantial decrease

# — US8741944B2, “Anti-infective agents against intracellular pathogens” (priority 2007, dated 2014)
